Values quoted from earlier work, collected in patent publication US20240390366A1, “FORMULATION AND METHOD FOR TOPICAL TREATMENT OF MYCOBACTERIUM ULCERANS IN BURULI ULCERS” (priority 2021, published 2024).

- solubility in water: practically insoluble
SMILES: CC(C)/N=c1\cc2n(-c3ccc(Cl)cc3)c3ccccc3nc-2cc1Nc1ccc(Cl)cc1 [Clofazimine, clofazimine]
